Holding throughout (type): cell-based
Test [1] deals with T1, Ms5HT1B receptor (Manduca sexta, UniProt Q0GMY1).
T1 construct: gene 5HT1B
T1 sequence (Q0GMY1 1-448): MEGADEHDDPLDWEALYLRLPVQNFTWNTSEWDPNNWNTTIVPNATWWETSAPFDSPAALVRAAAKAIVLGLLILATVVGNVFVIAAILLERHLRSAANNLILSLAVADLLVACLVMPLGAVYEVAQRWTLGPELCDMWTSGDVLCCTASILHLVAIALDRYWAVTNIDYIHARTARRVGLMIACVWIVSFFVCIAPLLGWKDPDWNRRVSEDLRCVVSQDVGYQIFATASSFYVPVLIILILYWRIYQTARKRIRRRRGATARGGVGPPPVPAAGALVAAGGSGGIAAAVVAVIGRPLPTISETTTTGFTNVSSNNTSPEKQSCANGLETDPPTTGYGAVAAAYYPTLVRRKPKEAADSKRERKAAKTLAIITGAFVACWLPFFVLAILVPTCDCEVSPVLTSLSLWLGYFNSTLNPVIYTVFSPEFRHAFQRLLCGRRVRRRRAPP
Description: two-electrode voltage clamp, Xenopus oocytes, endogenous chloride current. Conditions: for activity at 3 µM: read-out: 5HT1B receptor. The source says:
two-electrode voltage clamp, Xenopus oocytes, endogenous chloride current on Ms5HT1B receptor
On the technique in general: In two-electrode clamp one electrode senses voltage and the other passes current.

A further test has as its target T2, Ms5HT1A receptor (Manduca sexta, UniProt Q0GMY2).
T2 construct: gene 5HT1A; about 51 kDa
T2 sequence (Q0GMY2 1-463): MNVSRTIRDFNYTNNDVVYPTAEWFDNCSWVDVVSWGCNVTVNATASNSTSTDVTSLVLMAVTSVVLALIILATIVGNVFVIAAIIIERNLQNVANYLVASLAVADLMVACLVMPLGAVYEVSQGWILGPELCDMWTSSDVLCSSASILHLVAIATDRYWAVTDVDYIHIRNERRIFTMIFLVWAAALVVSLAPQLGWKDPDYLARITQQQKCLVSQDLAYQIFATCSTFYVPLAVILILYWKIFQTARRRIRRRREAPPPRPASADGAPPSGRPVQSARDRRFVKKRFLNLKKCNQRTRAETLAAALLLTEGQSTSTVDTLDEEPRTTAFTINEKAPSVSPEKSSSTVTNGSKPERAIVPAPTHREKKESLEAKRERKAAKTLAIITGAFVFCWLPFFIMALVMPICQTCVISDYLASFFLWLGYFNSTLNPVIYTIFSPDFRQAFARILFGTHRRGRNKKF
Description: two-electrode voltage clamp, Xenopus oocytes, CFTR current. Conditions: read-out: 5HT1A receptor. The source says:
two-electrode voltage clamp, Xenopus oocytes, CFTR current on Ms5HT1A receptor

Test [2] deals with T3, Ms5HT7 receptor (Manduca sexta, UniProt S4UQW2).
T3 construct: gene 5HT7; Xenopus oocytes (pBS-MXT, receptor cRNA alone)
T3 sequence (S4UQW2 38-563): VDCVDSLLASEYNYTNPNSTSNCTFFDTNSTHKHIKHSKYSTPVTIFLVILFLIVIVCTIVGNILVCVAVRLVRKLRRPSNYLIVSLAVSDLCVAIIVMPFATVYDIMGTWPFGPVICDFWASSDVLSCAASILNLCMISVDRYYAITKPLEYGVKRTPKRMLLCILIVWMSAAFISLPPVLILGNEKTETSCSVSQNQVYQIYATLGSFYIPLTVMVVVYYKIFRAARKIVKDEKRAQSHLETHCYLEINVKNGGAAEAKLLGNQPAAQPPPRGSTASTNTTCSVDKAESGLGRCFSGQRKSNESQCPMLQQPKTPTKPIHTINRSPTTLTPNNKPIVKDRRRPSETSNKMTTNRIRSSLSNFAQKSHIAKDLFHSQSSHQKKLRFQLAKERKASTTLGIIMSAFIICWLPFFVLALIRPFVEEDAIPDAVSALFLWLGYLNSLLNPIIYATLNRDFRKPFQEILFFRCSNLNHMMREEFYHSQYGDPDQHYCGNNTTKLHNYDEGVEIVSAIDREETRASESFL
Description: two-electrode voltage clamp, Xenopus oocytes, endogenous chloride current. Conditions: 3 µM; partial agonist; relative to 1 µM 5-HT. An excerpt: two-electrode voltage clamp, Xenopus oocytes, endogenous chloride current on Ms5HT7 receptor

For the next test, the target named is T4, Ms5HT2 receptor (Manduca sexta, UniProt S4USL2).
T4 construct: gene 5HT2
T4 sequence (S4USL2 1-635): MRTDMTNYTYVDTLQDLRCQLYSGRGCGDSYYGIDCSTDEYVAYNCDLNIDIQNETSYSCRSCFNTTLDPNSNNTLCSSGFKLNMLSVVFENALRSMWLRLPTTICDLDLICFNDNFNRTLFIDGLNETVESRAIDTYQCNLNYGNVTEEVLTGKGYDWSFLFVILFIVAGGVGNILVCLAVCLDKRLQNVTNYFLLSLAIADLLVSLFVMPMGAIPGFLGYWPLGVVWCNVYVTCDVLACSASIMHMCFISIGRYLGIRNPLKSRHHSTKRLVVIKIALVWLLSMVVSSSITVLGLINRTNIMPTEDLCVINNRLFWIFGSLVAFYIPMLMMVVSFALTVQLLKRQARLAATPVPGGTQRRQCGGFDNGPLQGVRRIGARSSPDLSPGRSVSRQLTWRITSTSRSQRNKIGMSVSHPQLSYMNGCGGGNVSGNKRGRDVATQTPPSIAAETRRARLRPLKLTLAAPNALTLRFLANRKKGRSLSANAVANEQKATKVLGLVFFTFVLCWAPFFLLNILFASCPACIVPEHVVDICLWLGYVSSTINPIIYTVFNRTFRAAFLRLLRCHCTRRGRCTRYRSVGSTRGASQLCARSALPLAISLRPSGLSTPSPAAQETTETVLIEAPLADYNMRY
Put plainly: two-electrode voltage clamp, Xenopus oocytes, endogenous calcium-dependent chloride current.

For test [3], the target named is T3, Ms5HT7 receptor. The test is described as above.
Test [4] has as its target T1, Ms5HT1B receptor. The description is as above.

In turn, `COc1ccc2[nH]cc(CCN)c2c1` [5-methoxytryptamine] had a 5HT1B receptor at Ms5HT1B receptor [1] (agonist, relative to 1 µM 5-HT) of 7.2 ± 1.4%.
With `COc1ccccc1N1CCN(CCN(C(=O)C2CCCCC2)c2ccccn2)CC1` [WAY100635], the results for the activity at 3 µM on Ms5HT1B receptor [1] and on Ms5HT1A receptor were 38.2 ± 3.3% and 76.8 ± 15.8%, respectively.
As to `CSc1ccc2c(c1)C(N1CCN(C)CC1)Cc1ccccc1S2` (centres unmarked) [methiothepin], the activity at 3 µM on Ms5HT1B receptor [1] is 36.4 ± 12.6%.
At Ms5HT7 receptor [2], `CC[C@@H](CO)NC(=O)[C@@H]1C=C2c3cccc4c3c(cn4C)C[C@H]2N(C)C1` [methysergide] had a Ms5HT7 of 49.5 ± 12%.
A word on the EC50: it is the concentration needed to bring the measured effect to its halfway point. In the case of `NCCc1c[nH]c2ccc(O)cc12` [serotonin], the EC50 on Ms5HT2 receptor was found to be 25.4 nM; on Ms5HT7 receptor [3] it was 10.5 nM; on Ms5HT1B receptor [4], 57 nM.

The record behind these values is article PMC3726668, “A Characterization of the Manduca sexta Serotonin Receptors in the Context of Olfactory Neuromodulation” (PLoS ONE, 2013).
